From the CheMixHub viscosity set

Experiment: xn = mol fraction of the nth substance listed

CCN(CC)c1ccccc1 + CCCCCCCCO
viscosity [mPa·s], 100 kPa
Conditions	x1 = 0.1141	x1 = 0.2548	x1 = 0.3537	x1 = 0.4726	x1 = 0.5725	x1 = 0.6945	x1 = 0.7795	x1 = 0.8584	x1 = 0.9317
303.15 K	5.389	4.382	3.806	3.235	2.842	2.446	2.212	2.016	1.847
308.15 K	4.42	3.49	2.987	2.519	2.221	1.947	1.8	1.684	1.587
313.15 K	3.684	2.854	2.428	2.056	1.837	1.653	1.56	1.487	1.421
318.15 K	3.135	2.356	1.976	1.667	1.503	–	1.339	1.305	1.271

CCOC(=O)CC(=O)OCC + O=C1CCCC1
viscosity [mPa·s], 101 kPa
Conditions	x1 = 0.0758	x1 = 0.1566	x1 = 0.2437	x1 = 0.3678	x1 = 0.4601	x1 = 0.5678	x1 = 0.6456	x1 = 0.7598	x1 = 0.8459	x1 = 0.9215
303.15 K	1.061	1.125	1.193	1.288	1.356	1.433	1.487	1.565	1.624	1.675
308.15 K	0.981	1.038	1.098	1.18	1.24	1.307	1.355	1.425	1.477	1.524
313.15 K	0.913	0.964	1.018	1.094	1.15	1.213	1.257	1.321	1.369	1.412

Cc1ccc(C(C)C)c(O)c1 + CC(C)[C@@H]1CC[C@@H](C)C[C@H]1O
Conditions	viscosity [mPa·s]
293.15 K, 100 kPa, x1 = 0.333	68.78
293.15 K, 100 kPa, x1 = 0.5	54.01
298 K, 101 kPa, x2 = 0.2	25.3
298 K, 101 kPa, x2 = 0.25	26.8
298 K, 101 kPa, x2 = 0.333	32
298.15 K, 100 kPa, x1 = 0.333	43.86
298.15 K, 100 kPa, x1 = 0.5	35.41
303.15 K, 100 kPa, x1 = 0.333	29.46
303.15 K, 100 kPa, x1 = 0.5	24.33
308.15 K, 100 kPa, x1 = 0.333	20.66
308.15 K, 100 kPa, x1 = 0.5	17.41
313.15 K, 100 kPa, x1 = 0.333	15.01
313.15 K, 100 kPa, x1 = 0.5	12.89
318.15 K, 100 kPa, x1 = 0.333	11.25
318.15 K, 100 kPa, x1 = 0.5	9.84
323.15 K, 100 kPa, x1 = 0.333	8.69
323.15 K, 100 kPa, x1 = 0.5	7.72

CCCCC(CC)COC(C)=O (stereo not drawn) + CCCCO
viscosity [mPa·s], 101.33 kPa
Conditions	x1 = 0.0991	x1 = 0.2017	x1 = 0.2984	x1 = 0.4115	x1 = 0.5002	x1 = 0.6078	x1 = 0.7049	x1 = 0.8061	x1 = 0.9005
293.15 K	2.681	2.504	2.344	2.177	2.052	1.91	1.791	1.674	1.572
303.15 K	2.139	2.01	1.894	1.768	1.675	1.568	1.478	1.389	1.311
313.15 K	1.605	1.529	1.461	1.386	1.329	1.264	1.207	1.151	1.101
323.15 K	1.07	1.05	1.031	1.01	0.994	0.974	0.957	0.939	0.923

CCN(CC)c1ccccc1 + CCCCCCCO
viscosity [mPa·s], 100 kPa
Conditions	x1 = 0.1216	x1 = 0.2426	x1 = 0.3349	x1 = 0.4641	x1 = 0.5612	x1 = 0.6524	x1 = 0.7356	x1 = 0.8144	x1 = 0.9141
303.15 K	4.25	3.593	3.178	2.706	2.425	2.21	2.049	1.923	1.792
308.15 K	3.658	3.095	2.735	2.323	2.079	1.895	1.763	1.665	1.577
313.15 K	3.122	2.622	2.308	1.96	1.76	1.617	1.52	1.455	1.405
318.15 K	2.671	2.129	1.826	1.535	1.398	1.319	1.278	1.257	1.243

Cc1ccc(C(C)C)c(O)c1 + CC12CCC(CC1)C(C)(C)O2
viscosity [mPa·s], 101.33 kPa
Conditions	x1 = 0.5865	x1 = 0.6068	x1 = 0.6272	x1 = 0.6462	x1 = 0.6661	x1 = 0.6858	x1 = 0.7057
293.15 K	43.71	45.56	46.15	46.86	46.28	45.95	44.22
298.15 K	29.92	30.8	31.35	31.41	31.27	30.92	29.82

ClCCCCl + CCC(C)O
viscosity [mPa·s], 101 kPa
Conditions	x1 = 0.1002	x1 = 0.2005	x1 = 0.3002	x1 = 0.4005	x1 = 0.4986	x1 = 0.6027	x1 = 0.6951	x1 = 0.8051	x1 = 0.9113
298.15 K	2.23	1.683	1.346	1.134	1.031	0.9587	0.9141	0.894	0.8997
313.15 K	1.369	1.103	0.9402	0.8403	0.7841	0.7468	0.7254	0.7214	0.7371

Cc1ccc(C(C)C)c(O)c1 + CCCCCCCCCCCCCCCC(=O)O
100 kPa, x2 = 0.2
Conditions	viscosity [mPa·s]
313.15 K	9.21
318.15 K	7.54
323.15 K	6.29

CCOC(=O)CC(=O)OCC + CC(=O)c1ccccc1
viscosity [mPa·s], 101 kPa
Conditions	x1 = 0.0812	x1 = 0.1401	x1 = 0.2516	x1 = 0.3486	x1 = 0.4322	x1 = 0.5248	x1 = 0.6335	x1 = 0.7384	x1 = 0.8256	x1 = 0.9278
303.15 K	1.564	1.587	1.626	1.655	1.677	1.697	1.714	1.727	1.732	1.738
308.15 K	1.412	1.43	1.461	1.487	1.506	1.524	1.54	1.55	1.559	1.567
313.15 K	1.315	1.334	1.363	1.384	1.4	1.416	1.43	1.44	1.446	1.454

CC1(C)OC1C#N (stereo not drawn) + ClC(Cl)(Cl)Cl
viscosity [mPa·s], 101 kPa
Conditions	293.15 K	298.15 K	303.15 K	313.15 K	323.15 K
x1 = 0.009	0.983	0.938	0.906	0.779	0.67
x1 = 0.087	0.98	0.937	0.877	0.754	0.675

CCCN(CCC)CCC + C1CCCCC1
viscosity [mPa·s], 101 kPa
Conditions	x1 = 0.01088	x1 = 0.02001	x1 = 0.0305	x1 = 0.04057	x1 = 0.05108	x1 = 0.05957	x1 = 0.06928	x1 = 0.07872	x1 = 0.08785
303.15 K	0.8118	0.8071	0.8005	0.7936	0.7874	0.7784	0.7721	0.766	0.7599
313.15 K	0.7082	0.6992	0.6899	0.6808	0.673	0.6664	0.6605	0.6541	0.6465

S + ClC(Cl)Cl
298.15 K, 101 kPa
Conditions	viscosity [mPa·s]
x1 = 0.00673	0.5257
x1 = 0.00998	0.5206

CCCC(C)CO (stereo not drawn) + CO
298.15 K, 101.33 kPa
Conditions	viscosity [mPa·s]
x2 = 0.0849	4.645
x2 = 0.2146	3.757
x2 = 0.3193	3.053
x2 = 0.4183	2.526
x2 = 0.5192	2.018
x2 = 0.6077	1.676
x2 = 0.7069	1.296
x2 = 0.8045	1.018
x2 = 0.9002	0.7552

CCCCCCCCCCCCCC[P+](CCCCCC)(CCCCCC)CCCCCC.c1ccc2[n-]cnc2c1 + O
Conditions	viscosity [mPa·s]
298.15 K, 100 kPa, x2 = 0.759	207

CCN(CC)c1ccccc1 + Oc1ccccc1
viscosity [mPa·s], 101 kPa
Conditions	298.15 K	313.15 K	323.15 K
x1 = 0.0654	8.65	4.49	3.1
x1 = 0.1184	8.76	4.49	3.13
x1 = 0.139	8.47	4.35	3
x1 = 0.1758	8.2	4.17	2.87
x1 = 0.2126	7.75	3.95	2.77
x1 = 0.2997	6.44	3.49	2.48
x1 = 0.3868	5.27	3	2.17
x1 = 0.5	4.11	2.51	1.93
x1 = 0.5955	3.27	2.13	1.65
x1 = 0.6559	2.86	1.95	1.52
x1 = 0.7162	2.63	1.8	1.37
x1 = 0.8502	2.17	1.48	1.22

CCOC(=O)CC(=O)OCC + O=C1CCCCC1
viscosity [mPa·s], 101 kPa
Conditions	x1 = 0.0713	x1 = 0.1285	x1 = 0.2155	x1 = 0.3058	x1 = 0.407	x1 = 0.5085	x1 = 0.6055	x1 = 0.7125	x1 = 0.8065	x1 = 0.9118
303.15 K	1.79	1.76	1.727	1.694	1.665	1.631	1.625	1.635	1.667	1.706
308.15 K	1.623	1.591	1.553	1.515	1.487	1.458	1.454	1.465	1.497	1.533
313.15 K	1.495	1.463	1.423	1.386	1.352	1.333	1.33	1.341	1.371	1.406

CC(O)CN1CC[NH+](CC(C)O)CC1.CC(O)CN1CC[NH+](CC(C)O)CC1.O=S(=O)([O-])[O-] (stereo not drawn) + O
viscosity [mPa·s], 101 kPa
Conditions	298.15 K	303.15 K	308.15 K	313.15 K	318.15 K	323.15 K
x1 = 0.0024	1.1	0.975	0.869	0.816	0.721	0.665
x1 = 0.00505	1.382	1.232	1.111	1.026	0.906	0.807
x1 = 0.00812	1.834	1.634	1.434	1.355	1.176	1.025
x1 = 0.0117	2.454	2.221	1.934	1.739	1.513	1.311
x1 = 0.0158	3.565	3.115	2.653	2.327	2.009	1.727
x1 = 0.0208	5.31	4.49	3.747	3.216	2.675	2.282

CCOC(=O)CC(=O)OCC + CCC(=O)CC
viscosity [mPa·s], 101 kPa
Conditions	x1 = 0.0736	x1 = 0.1356	x1 = 0.2458	x1 = 0.3326	x1 = 0.4124	x1 = 0.5158	x1 = 0.6256	x1 = 0.7456	x1 = 0.8626	x1 = 0.9415
303.15 K	0.488	0.535	0.633	0.725	0.814	0.94	1.094	1.273	1.475	1.627
308.15 K	0.45	0.493	0.58	0.658	0.742	0.859	0.999	1.162	1.341	1.478
313.15 K	0.437	0.477	0.56	0.633	0.708	0.812	0.938	1.089	1.25	1.375

CCN(CC)c1ccccc1 + CCC(=O)O
Conditions	viscosity [mPa·s]
323.15 K, 101 kPa, x2 = 0.5177	1.865

CCCCC(CC)COC(C)=O (stereo not drawn) + CCCCCO
viscosity [mPa·s], 101.33 kPa
Conditions	x1 = 0.1041	x1 = 0.2073	x1 = 0.3002	x1 = 0.4211	x1 = 0.4987	x1 = 0.6	x1 = 0.7008	x1 = 0.8092	x1 = 0.9033
293.15 K	3.692	3.321	3.019	2.666	2.462	2.219	2	1.79	1.625
303.15 K	2.68	2.451	2.262	2.037	1.905	1.745	1.599	1.456	1.342
313.15 K	2.119	1.955	1.818	1.653	1.556	1.437	1.328	1.22	1.134
323.15 K	1.255	1.209	1.169	1.119	1.087	1.048	1.01	0.971	0.938
